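How tested: cells in 96-well plates exposed to compound for 48 hours at five concentrations. GI50 is the concentration that inhibits growth by half.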 Active and inactive are the calls of the source. Cut-off read from the data, not from the text of the source: active = GI50 up to about 1.1 µM and inactive = higher.
Assays:
Test in all cases: NCI anticancer screen, dose series, 48 h
HCC 2998 = test system: HCC 2998
DU-145 = test system: DU-145
UACC-62 = test system: UACC-62
SNB-75 = test system: SNB-75
Malme-3M = test system: Malme-3M
RXF 393 = test system: RXF 393
SK-OV-3 = test system: SK-OV-3
MDA-MB-435 = test system: MDA-MB-435
NCI-H226 = test system: NCI-H226
SK-MEL-5 = test system: SK-MEL-5
786-0 = test system: 786-0
CAKI-1 = test system: CAKI-1
NCI/ADR-RES = test system: NCI/ADR-RES
MDA-N = test system: MDA-N
SK-MEL-2 = test system: SK-MEL-2
KM12 = test system: KM12
SK-MEL-28 = test system: SK-MEL-28
HCT-15 = test system: HCT-15
HOP-92 = test system: HOP-92
SR = test system: SR

| Structure (SMILES) | GI50 (HCC 2998) | GI50 (DU-145) | GI50 (UACC-62) | GI50 (SNB-75) | GI50 (Malme-3M) | GI50 (RXF 393) | GI50 (SK-OV-3) | GI50 (MDA-MB-435) | GI50 (NCI-H226) | GI50 (SK-MEL-5) | GI50 (786-0) | GI50 (CAKI-1) | GI50 (NCI/ADR-RES) | GI50 (MDA-N) | GI50 (SK-MEL-2) | GI50 (KM12) | GI50 (SK-MEL-28) | GI50 (HCT-15) [µM] | GI50 (HOP-92) | GI50 (SR) |
| --- | --- | --- | --- | --- | --- | --- | --- | --- | --- | --- | --- | --- | --- | --- | --- | --- | --- | --- | --- | --- |
| ClC(Cl)(Cl)C1CCOC1n1nnc2ccccc21 (stereo unspecified) | > 100 µM (inactive) | > 100 µM (inactive) | > 100 µM (inactive) | 1.2 µM (inactive) | > 100 µM (inactive) | > 100 µM (inactive) | > 100 µM (inactive) | > 100 µM (inactive) | > 100 µM (inactive) | 45.2 µM (inactive) | > 100 µM (inactive) | > 100 µM (inactive) | 42.2 µM (inactive) | > 100 µM (inactive) | > 100 µM (inactive) |  |  |  |  |  |
| Nc1ccc(Oc2ccc(C34CC5CC(C3)CC(c3ccc(Oc6ccc(N)cc6C(F)(F)F)cc3)(C5)C4)cc2)c(C(F)(F)F)c1 |  | 35.2 µM (inactive) | 22.1 µM (inactive) |  | 22.2 µM (inactive) | 11.1 µM (inactive) | 15.6 µM (inactive) | 24.2 µM (inactive) | 19.4 µM (inactive) | 22 µM (inactive) | 31.6 µM (inactive) | 28.1 µM (inactive) | 21.7 µM (inactive) | 36.6 µM (inactive) | 14.1 µM (inactive) | 21 µM (inactive) | 43.3 µM (inactive) | 31.8 |  |  |
| CC(O)CN1c2ccccc2Sc2ccccc21 (stereo unspecified) | > 100 µM (inactive) | > 100 µM (inactive) | > 100 µM (inactive) |  | > 100 µM (inactive) | > 100 µM (inactive) | > 100 µM (inactive) | > 100 µM (inactive) | > 100 µM (inactive) | > 100 µM (inactive) | > 100 µM (inactive) | > 100 µM (inactive) | > 100 µM (inactive) | > 100 µM (inactive) |  | > 100 µM (inactive) | > 100 µM (inactive) | > 100 | > 100 µM (inactive) |  |
| COc1ccc2oc(C(=O)N3CC(CCl)c4ccc([N+](=O)[O-])cc43)cc2c1 (stereo unspecified) | > 100 µM (inactive) | 25.4 µM (inactive) | 41.9 µM (inactive) | 18.2 µM (inactive) |  | 13.4 µM (inactive) | 13.2 µM (inactive) | 0.468 µM (active) | 0.664 µM (active) | > 100 µM (inactive) | 16.2 µM (inactive) | 15.4 µM (inactive) | 17.9 µM (inactive) |  | 26.4 µM (inactive) | 0.381 µM (active) | > 100 µM (inactive) |  | 26.1 µM (inactive) | 0.402 µM (active) |
| CC(C)(C)C1=C(Br)C(OC(=O)C(F)(F)F)(C(C)(C)C)OP1(=O)c1ccccc1 (stereo unspecified) | 38.6 µM (inactive) | 45.2 µM (inactive) | 28.8 µM (inactive) | 33.4 µM (inactive) | 65 µM (inactive) |  | 39.1 µM (inactive) | 53.3 µM (inactive) | 40.5 µM (inactive) | 65.3 µM (inactive) | 40.2 µM (inactive) | 0.0643 µM (active) | 35.1 µM (inactive) | 60.8 µM (inactive) | 29.2 µM (inactive) | 63 µM (inactive) | > 100 µM (inactive) | 31.5 | 36.5 µM (inactive) |  |
| Cc1ccc(/C=C2/NC(=S)SC2=O)cc1 | 31.2 µM (inactive) | 58.5 µM (inactive) |  | 20.7 µM (inactive) |  |  | 88.1 µM (inactive) | 36.5 µM (inactive) | 25.7 µM (inactive) | 32.1 µM (inactive) | 34.6 µM (inactive) | 19.6 µM (inactive) | 22.5 µM (inactive) |  | 36.9 µM (inactive) | 33.3 µM (inactive) | > 100 µM (inactive) | 24.2 | 43.8 µM (inactive) |  |
| CO/N=C(\C(=O)Nc1cncs1)c1csc(NC(c2ccccc2)(c2ccccc2)c2ccccc2)n1 | 8.53 µM (inactive) | > 10 µM (inactive) |  | 9.95 µM (inactive) | > 10 µM (inactive) | 9.55 µM (inactive) | > 10 µM (inactive) |  | > 10 µM (inactive) | > 10 µM (inactive) | > 10 µM (inactive) | > 10 µM (inactive) | > 10 µM (inactive) | > 10 µM (inactive) | > 10 µM (inactive) | 9.4 µM (inactive) | > 10 µM (inactive) | > 10 | > 10 µM (inactive) | 4.12 µM (inactive) |
| N#Cc1cc(-c2nc3c(F)cccc3s2)ccc1N |  | > 100 µM (inactive) | > 100 µM (inactive) | > 100 µM (inactive) | 88.9 µM (inactive) | > 100 µM (inactive) | > 100 µM (inactive) | 45.5 µM (inactive) | > 100 µM (inactive) | 56.4 µM (inactive) | > 100 µM (inactive) | 46 µM (inactive) | > 100 µM (inactive) | 47.8 µM (inactive) |  | 65.3 µM (inactive) |  | > 100 | 3.52 µM (inactive) |  |
| COc1ccc(C2SC(C)C(=O)N2c2nc(-c3nc(-c4ccc(Cl)cc4)cs3)cs2)cc1 (stereo unspecified) | > 100 µM (inactive) |  | > 100 µM (inactive) | > 100 µM (inactive) | > 100 µM (inactive) | > 100 µM (inactive) | > 100 µM (inactive) | > 100 µM (inactive) | > 100 µM (inactive) | > 100 µM (inactive) | > 100 µM (inactive) | > 100 µM (inactive) | > 100 µM (inactive) | > 100 µM (inactive) |  | > 100 µM (inactive) | > 10 µM (inactive) | > 100 | > 100 µM (inactive) | > 100 µM (inactive) |
| O=C(/C=C/c1ccccc1)/C=N/N1C(=S)N(c2ccccc2)C(=N\c2ccccc2)/C1=N/c1ccccc1 | > 100 µM (inactive) | > 100 µM (inactive) | > 100 µM (inactive) |  | > 100 µM (inactive) | 38.8 µM (inactive) | > 100 µM (inactive) |  | > 100 µM (inactive) | > 100 µM (inactive) | > 100 µM (inactive) | > 100 µM (inactive) | > 100 µM (inactive) | 82.4 µM (inactive) | > 100 µM (inactive) | > 100 µM (inactive) | > 100 µM (inactive) | > 100 | > 100 µM (inactive) | > 100 µM (inactive) |
| COc1cc2c(cc1C)NC(=O)/C2=C\c1cccnc1 | 10 µM (inactive) | 17.1 µM (inactive) |  | 17.9 µM (inactive) | 15 µM (inactive) | 17.4 µM (inactive) | 16.3 µM (inactive) | 13.7 µM (inactive) |  | 15.1 µM (inactive) | 25 µM (inactive) | 15.4 µM (inactive) | 14.1 µM (inactive) |  | 18.7 µM (inactive) | 13.6 µM (inactive) | 50.4 µM (inactive) | 16.4 | 25.1 µM (inactive) |  |
| CC(C)(C)c1cc(-c2cc(C(C)(C)C)[nH]n2)[nH]n1 | > 100 µM (inactive) | > 100 µM (inactive) | > 100 µM (inactive) |  | > 100 µM (inactive) | > 100 µM (inactive) | > 100 µM (inactive) | > 100 µM (inactive) | > 100 µM (inactive) | > 100 µM (inactive) | > 100 µM (inactive) | > 100 µM (inactive) |  | > 100 µM (inactive) | > 100 µM (inactive) |  | > 100 µM (inactive) | > 100 | > 100 µM (inactive) | 39.1 µM (inactive) |
| Cc1cn2cc(-c3cccs3)nc2s1 | 63.4 µM (inactive) | > 40.4 µM (inactive) | > 100 µM (inactive) | > 100 µM (inactive) | > 100 µM (inactive) | > 100 µM (inactive) | > 100 µM (inactive) | > 100 µM (inactive) | > 24.6 µM (inactive) | > 61.8 µM (inactive) | > 100 µM (inactive) | > 100 µM (inactive) |  | > 72.6 µM (inactive) | > 100 µM (inactive) | 43.9 µM (inactive) | > 100 µM (inactive) | > 71.9 | > 71.8 µM (inactive) | > 67.6 µM (inactive) |
| S=c1c2cn[nH]c2nc2scc(-c3ccc(Cl)cc3)n12 | 15.4 µM (inactive) |  | 16.3 µM (inactive) | 13.9 µM (inactive) | 22.2 µM (inactive) | 4.04 µM (inactive) | 18.1 µM (inactive) | 3.78 µM (inactive) |  | 17.6 µM (inactive) | 14.1 µM (inactive) | 9.59 µM (inactive) | 13.8 µM (inactive) | 4.36 µM (inactive) | 18.2 µM (inactive) | 11.1 µM (inactive) | 18.1 µM (inactive) | 10.7 |  | 12.1 µM (inactive) |
| C=C(C)C1CC/C(C)=C/CC[C@]2(C)O[C@H]2CC/C(COC(C)=O)=C\[C@@H]1O (stereo partly specified) | > 50 µM (inactive) | > 50 µM (inactive) | > 50 µM (inactive) |  |  | > 50 µM (inactive) | 31.1 µM (inactive) | 22.7 µM (inactive) | > 50 µM (inactive) | > 50 µM (inactive) | > 50 µM (inactive) | > 50 µM (inactive) | 20.7 µM (inactive) |  | > 50 µM (inactive) | > 50 µM (inactive) | > 50 µM (inactive) | > 50 | > 50 µM (inactive) | 34.6 µM (inactive) |
| CC(C)c1cc(C(C)C)c(S(=O)(=O)N/N=C2\CC3CCC2(C)C3(C)C)c(C(C)C)c1 (stereo unspecified) | 23.3 µM (inactive) | 18 µM (inactive) | 37.3 µM (inactive) |  | 25.5 µM (inactive) | 11.7 µM (inactive) | 55.3 µM (inactive) | 34.8 µM (inactive) | 16.9 µM (inactive) | 14.5 µM (inactive) | 28.4 µM (inactive) | 20.2 µM (inactive) | 20.8 µM (inactive) | 15.1 µM (inactive) | 18.9 µM (inactive) | 36.1 µM (inactive) | 31.8 µM (inactive) | 46 |  |  |

— ChEMBL document CHEMBL1201862, “PubChem BioAssay data set” (2004)
